Read-outs that look alike come from different tables or passages of the source.
Columns and labels:
[1] = tested on: MV4;11 cells; assay: Cell viability assay (CellTiter-Glo) in MV4;11 cells, alone or with gilteritinib; type: cell-based; details: Homo sapiens, MV4-11, 72 h, MV4;11 cells, CellTiter-Glo, read-out: MV4
[2] = tested on: MOLM-13 cells; assay: Cell viability assay (CellTiter-Glo) in MOLM-13 cells, alone or with gilteritinib; type: cell-based; details: Homo sapiens, MOLM-13, 72 h, MOLM-13 cells, CellTiter-Glo
[3] = compound alone (without gilteritinib), three days, 11 IC50
[4] = with gilteritinib 10 nM, three days, 11 IC50 gilteritinib
[5] = compound alone (without gilteritinib), three days, read-out: MOLM-13 IC50
[6] = with gilteritinib 20 nM, three days, read-out: MOLM-13 IC50 gilteritinib
[7] = compound with gilteritinib 10 nM, three days, 11 IC50 gilteritinib
[8] = compound with gilteritinib 20 nM, three days, read-out: MOLM-13 IC50 gilteritinib

Compound | IC50 [1, 3] [nM] | IC50 [1, 4] [nM] | IC50 [2, 5] [nM] | IC50 [2, 6] [nM] | IC50 [1, 7] [nM] | IC50 [2, 8] [nM] | IC50 ([1]; with 10 nM gilteritinib, 3 days, 11 IC50 gilteritinib) [nM] | IC50 ([1]; without gilteritinib, 3 days, 11 IC50) [nM] | IC50 ([2]; with 20 nM gilteritinib, 3 days, read-out: MOLM-13 IC50 gilteritinib) [nM] | IC50 ([2]; without gilteritinib, 3 days, read-out: MOLM-13 IC50) [nM]
O=C1CCC(N2C(=O)c3ccc(NCCC[C@H]4C[C@H](n5cc(-c6cnc7ccc(N8C[C@@H]9C[C@H]8CN9)cc7n6)cn5)C4)cc3C2=O)C(=O)N1 (stereo partly drawn) [GS-203, 5-((3-(trans-3-(4-(7-((1S,4S)-2,5-Diazabicyclo[2.2.1]heptan-2-yl)quinoxalin-2-yl)-1H-pyrazol-1-yl)cyclobutyl)propyl)amino)-2-(2,6-dioxopiperidin-3-yl)isoindoline-1,3-dione] | 100 to 1000 | 10 to 100 | > 1000 | 10 to 100 | – | – | – | – | – | –
O=C1CCC(N2Cc3ccc(CCCCCCn4cc(-c5cnc6ccccc6n5)cn4)cc3C2=O)C(=O)N1 (centres unmarked) [GS-106, 3-(1-Oxo-6-(6-(4-(quinoxalin-2-yl)-1H-pyrazol-1-yl)hexyl)isoindolin-2-yl)piperidine-2,6-dione] | 100 to 1000 | 10 to 100 | > 1000 | 10 to 100 | – | – | – | – | – | –
O=C1CCC(N2Cc3cc(NCCCCCCn4cc(-c5cnc6ccccc6n5)cn4)ccc3C2=O)C(=O)N1 (centres unmarked) [GS-361, 3-(1-Oxo-5-((6-(4-(quinoxalin-2-yl)-1H-pyrazol-1-yl)hexyl)amino)isoindolin-2-yl)piperidine-2,6-dione] | 100 to 1000 | 10 to 100 | > 1000 | 10 to 100 | – | – | – | – | – | –
O=C1CCC(N2C(=O)c3ccc(NC[C@H]4C[C@H](n5cc(-c6ncccc6NC6CCNCC6)c(C6CC6)n5)C4)cc3C2=O)C(=O)N1 (stereo partly drawn) [GS-304, 5-(((trans-3-(3-Cyclopropyl-4-(3-(piperidin-4-ylamino)pyridin-2-yl)-1H-pyrazol-1-yl)cyclobutyl)methyl)amino)-2-(2,6-dioxopiperidin-3-yl)isoindoline-1,3-dione] | > 1000 | > 1000 | > 1000 | > 1000 | – | – | – | – | – | –
O=C1CCC(N2C(=O)c3ccc(NCCC4CC(C(=O)N5CCC(n6cc(-c7cnc8ccccc8n7)cn6)CC5)C4)cc3C2=O)C(=O)N1 (centres unmarked) [GS-205, 2-(2,6-Dioxopiperidin-3-yl)-5-((2-(3-(4-(4-(quinoxalin-2-yl)-1H-pyrazol-1-yl)piperidine-1-carbonyl)cyclobutyl)ethyl)amino)isoindoline-1,3-dione] | 10 to 100 | < 10 | 10 to 100 | < 10 | – | – | – | – | – | –
CC(CCCNc1ccc2c(c1)C(=O)N(C1CCC(=O)NC1=O)C2=O)C(=O)N1CCC(n2cc(-c3cnc4ccccc4n3)cn2)CC1 (centres unmarked) [GS-138, 2-(2,6-Dioxopiperidin-3-yl)-5-((4-methyl-5-oxo-5-(4-(4-(quinoxalin-2-yl)-1H-pyrazol-1-yl)piperidin-1-yl)pentyl)amino)iaoindoline-1,3-dione] | > 1000 | > 1000 | > 1000 | > 1000 | – | – | – | – | – | –
O=C1CCC(N2Cc3c(Nc4ccnc(NC5CCC(N6CCC(n7cc(-c8cnc9ccccc9n8)cn7)CC6)C5)n4)cccc3C2=O)C(=O)N1 (centres unmarked) [GS-092, 3-(1-Oxo-4-((2-((3-(4-(4-(quinoxalin-2-yl)-1H-pyrazol-1-yl)piperidin-1-yl)cyclopentyl)amino)pyrimidin-4-yl)amino)isoindolin-2-yl)piperidine-2,6-dione] | > 1000 | > 1000 | > 1000 | > 1000 | – | – | – | – | – | –
O=C1CCC(N2Cc3c(NC4CCCC(Nc5nccc(N6CCC(n7cc(-c8cnc9ccccc9n8)cn7)CC6)n5)C4)cccc3C2=O)C(=O)N1 (centres unmarked) [GS-125, 3-(1-Oxo-4-((3-((4-(4-(4-(quinoxalin-2-yl)-1H-pyrazol-1-yl)piperidin-1-yl)pyrimidin-2-yl)amino)cyclohexyl)amino)isoindolin-2-yl)piperidine-2,6-dione] | 100 to 1000 | 100 to 1000 | > 1000 | > 1000 | – | – | – | – | – | –
O=C1CCC(N2C(=O)c3ccc(NCCCCCC(=O)N4CCC(n5cc(-c6ccccn6)cn5)CC4)cc3C2=O)C(=O)N1 (centres unmarked) [GS-053, 2-(2,6-Dioxopiperidin-3-yl)-5-((6-oxo-6-(4-(4-(pyridin-2-yl)-1H-pyrazol-1-yl)piperidin-1-yl)hexyl)amino)isoindoline-1,3-dione] | 10 to 100 | < 10 | 100 to 1000 | < 10 | – | – | – | – | – | –
CC(C)(CCCNc1ccc2c(c1)C(=O)N(C1CCC(=O)NC1=O)C2=O)C(=O)N1CCC(n2cc(-c3cnc4ccccc4n3)cn2)CC1 (centres unmarked) [GS-139, 5-((4,4-Dimethyl-5-oxo-5-(4-(4-(quinoxalin-2-yl)-1H-pyrazol-1-yl)piperidin-1-yl)pentyl)amino)-2-(2,6-dioxopiperidin-3-yl)isoindoline-1,3-dione] | 100 to 1000 | 100 to 1000 | > 1000 | > 1000 | – | – | – | – | – | –
O=C1CCC(N2C(=O)c3ccc(NCCCCCC(=O)N4CCC(n5cc(-c6cnccn6)cn5)CC4)cc3C2=O)C(=O)N1 (centres unmarked) [GS-009, 2-(2,6-Dioxopiperidin-3-yl)-5-((6-oxo-6-(4-(4-(pyrazin-2-yl)-1H-pyrazol-1-yl)piperidin-1-yl)hexyl)amino)isoindoline-1,3-dione] | – | – | – | – | – | – | 22 | 296 | 18 | 35
O=C1CCC(N2C(=O)c3ccc(NC[C@H]4C[C@H](n5cc(-c6cnc7c(N8CCOCC8)cccc7n6)c(C6CC6)n5)C4)cc3C2=O)C(=O)N1 (stereo partly drawn) [GS-266, 5-(((trans-3-(3-Cyclopropyl-4-(5-morpholinoquinoxalin-2-yl)-1H-pyrazol-1-yl)cyclobutyl)methyl)amino)-2-(2,6-dioxopiperidin-3-yl)isoindoline-1,3-dione] | < 10 | < 10 | < 10 | < 10 | – | – | – | – | – | –

More lines, now with the values ahead:

IC50 [1, 3] [nM] | IC50 [1, 4] [nM] | IC50 [2, 5] [nM] | IC50 [2, 6] [nM] | IC50 [1, 7] [nM] | IC50 [2, 8] [nM] | IC50 ([1]; with 10 nM gilteritinib, 3 days, 11 IC50 gilteritinib) [nM] | IC50 ([1]; without gilteritinib, 3 days, 11 IC50) [nM] | IC50 ([2]; with 20 nM gilteritinib, 3 days, read-out: MOLM-13 IC50 gilteritinib) [nM] | IC50 ([2]; without gilteritinib, 3 days, read-out: MOLM-13 IC50) [nM] | Compound
10 to 100 | – | 10 to 100 | – | < 10 | < 10 | – | – | – | – | O=C1CCC(N2C(=O)c3ccc(NCCC[C@H]4C[C@H](n5cc(-c6cnc7ccccc7n6)c(C6CC6)n5)C4)cc3C2=O)C(=O)N1 (stereo partly drawn) [GS-568, 5-((3-((trans)-3-(3-Cyclopropyl-4-(quinoxalin-2-yl)-1H-pyrazol-1-yl)cyclobutyl)propyl)amino)-2-(2,6-dioxopiperidin-3-yl)isoindoline-1,3-dione]
100 to 1000 | 100 to 1000 | > 1000 | > 1000 | – | – | – | – | – | – | O=C1CCC(N2C(=O)c3ccc(N4CCC(CCCn5cc(-c6cnc7ccccc7n6)cn5)CC4)cc3C2=O)C(=O)N1 (centres unmarked) [GS-363, 2-(2,6-Dioxopiperidin-3-yl)-5-(4-(3-(4-(quinoxalin-2-yl)-1H-pyrazol-1-yl)propyl)piperidin-1-yl)isoindoline-1,3-dione]
100 to 1000 | – | > 1000 | – | 10 to 100 | 10 to 100 | – | – | – | – | O=C1CCC(N2C(=O)c3ccc(NC[C@H]4C[C@H](n5cc(-c6cnc7c(C8CNC8)cccc7n6)c(C6CC6)n5)C4)cc3C2=O)C(=O)N1 (stereo partly drawn) [GS-624, 5-(((trans-3-(4-(5-(Azetidin-3-yl)quinoxalin-2-yl)-3-cyclopropyl-1H-pyrazol-1-yl)cyclobutyl)methyl)amino)-2-(2,6-dioxopiperidin-3-yl)isoindoline-1,3-dione]
> 1000 | – | > 1000 | – | > 1000 | 100 to 1000 | – | – | – | – | CN1CCN(c2cccc(-c3cnn([C@H]4C[C@H](CNc5ccc6c(c5)C(=O)N(C5CCC(=O)NC5=O)C6=O)C4)c3)n2)CC1 (stereo partly drawn) [GS-416, 2-(2,6-dioxopiperidin-3-yl)-5-(((trans-3-(4-(6-(4-methylpiperazin-1-yl)pyridin-2-yl)-1H-pyrazol-1-yl)cyclobutyl)methyl)amino)isoindoline-1,3-dione]
100 to 1000 | 10 to 100 | 100 to 1000 | 10 to 100 | – | – | – | – | – | – | O=C1CCC(N2C(=O)c3ccc(NCCC[C@H]4C[C@H](n5cc(-c6cnc7c(N8CCOCC8)cccc7n6)cn5)C4)cc3C2=O)C(=O)N1 (stereo partly drawn) [GS-403, 2-(2,6-Dioxopiperidin-3-yl)-5-((3-(trans-3-(4-(5-morpholinoquinoxalin-2-yl)-1H-pyrazol-1-yl)cyclobutyl)propyl)amino)isoindoline-1,3-dione]
> 1000 | 10 to 100 | > 1000 | 10 to 100 | – | – | – | – | – | – | CN1C[C@H]2C[C@@H]1CN2c1ccc2ncc(-c3cnn(C4CC(CCCNc5ccc6c(c5)C(=O)N(C5CCC(=O)NC5=O)C6=O)C4)c3)nc2c1 (stereo partly drawn) [GS-395, 2-(2,6-Dioxopiperidin-3-yl)-5-((3-(3-(4-(7-((1R,4R)-5-methyl-2,5-diazabicyclo[2.2.1]heptan-2-yl)quinoxalin-2-yl)-1H-pyrazol-1-yl)cyclobutyl)propyl)amino)isoindoline-1,3-dione]
> 1000 | – | > 1000 | – | > 1000 | > 1000 | – | – | – | – | CN1CCC(c2cn([C@H]3C[C@H](CNc4ccc5c(c4)C(=O)N(C4CCC(=O)NC4=O)C5=O)C3)nc2C2CC2)CC1 (stereo partly drawn) [GS-460, 5-(((trans-3-(3-cyclopropyl-4-(1-methylpiperidin-4-yl)-1H-pyrazol-1-yl)cyclobutyl)methyl)amino)-2-(2,6-dioxopiperidin-3-yl)isoindoline-1,3-dione]
10 to 100 | – | 10 to 100 | – | < 10 | < 10 | – | – | – | – | CN(C)c1cccnc1-c1cn([C@H]2C[C@H](CNc3ccc4c(c3)C(=O)N(C3CCC(=O)NC3=O)C4=O)C2)nc1C1CC1 (stereo partly drawn) [GS-621, 5-(((trans-3-(3-Cyclopropyl-4-(3-(dimethylamino)pyridin-2-yl)-1H-pyrazol-1-yl)cyclobutyl)methyl)amino)-2-(2,6-dioxopiperidin-3-yl)isoindoline-1,3-dione]

— patent publication US20240050428A1 (Cullgen (Shanghai), Inc., priority 2020, published 2024)
